Patent US20180228780A1, “3-(1H-PYRROLO[2,3-C]PYRIDIN-2-YL)-1H-INDAZOLES AND THERAPEUTIC USES THEREOF” (Samumed, LLC, priority 2015, published 2018)

Key:
Assay type in all cases: cell-based
[1] = system: Wnt activity (Sp5-Luc reporter, SW480 colon carcinoma cells); assay: Screening assay for Wnt activity: Sp5-Luc reporter gene assay in SW480 cells; conditions: Homo sapiens; for EC50: SW480 Sp5-Luc reporter, overnight incubation; for inhibition at 10 µM: SW480, read-out: percent inhibition at 10 μM
Description: The screening assay for Wnt activity is described as follows. Reporter cell lines can be generated by stably transducing cancer cell lines (e.g., colon cancer) or primary cells (e.g., IEC-6 intestinal cells) with a lentiviral construct that includes a Wnt-responsive promoter driving expression of the firefly luciferase gene.
SW480 colon carcinoma cells were transduced with a lentiviral vector expressing luciferase with a human Sp5 promoter consisting of a sequence of eight TCF/LEF binding sites. SW480 cells stably expressing the Sp5-Luc reporter gene and a hygromycin resistance gene were selected by treatment with 150 μg/mL of hygromycin for 7 days. These stably transduced SW480 cells were expanded in cell culture and used for all further screening activities. […] For Sp5-Luc reporter gene assays, the cells were plated at 4,000 cells/well in 384-well plates with medium containing 1% fetal bovine serum and incubated overnight at 37° C. and 5% CO2. Following incubation, 20 μl of BrightGlo luminescence reagent (Promega) was added to each well of the 384-well assay plates. The plates were placed on an orbital shaker for 2 min and then luminescence was quantified using the Envision (Perkin Elmer) plate reader. Readings were normalized to DMSO only treated cells, and normalized activities were utilized for EC50 calculations using the dose-response log (inhibitor) vs. response-variable slope (four parameters) nonlinear regression feature available in GraphPad Prism 5.0 (or Dotmatics).

[2] = system: SW480 colon cancer cells; assay: Cell viability assay (CellTiter-Blue) in SW480 colon cancer cells; conditions: Homo sapiens; for EC50: 96 h, SW480 cell viability, four days incubation; for inhibition at 10 µM: SW480, read-out: percent inhibition at 10 μM
Protocol: Representative compounds were screened using the following assay procedure to assess the effect on cell viability as described below.
Approximately 2×10^3 SW480 colon cancer cells were seeded into each well and allowed to incubate in the presence or absence of compound for four days at 37° C./5% CO2. Eight replicates of DMSO-treated cells served as controls and cells treated with compound were performed in duplicate.
After incubation, 20 μL of CellTiter-Blue (Promega) was added to each well allowed to incubate for approximately 3 hours. This reagent was a buffered solution which contains resazurin, metabolically active cells were able to reduce rezarurin (blue) into resorufin (pink) which was highly fluorescent. This measured fluorescence was used as a readout for cell viability.

[3] = system: Primary human fibroblasts derived from IPF patients (LL29 cells); assay: Inhibition of the fibrotic process: αSMA staining in TGF-β1-treated LL29 fibroblasts; conditions: Fibroblast, 96 h, LL29 cells, TGF-β1 20 ng/mL, 4 days, % αSMA-positive cells
Description: Representative compounds were screened using primary human fibroblasts (derived from IFF patients) treated with TGF-β1 to determine their ability to inhibit the fibrotic process.
K. L., et.al., “RhoA signaling modulates cyclin D1 expression in human lung fibroblasts; implications for idiopathic pulmonary fibrosis”, Respiratory Research (2006), 7(1), 88] were obtained from American Type Culture Collection (ATCC) and expanded in F12 medium supplemented with 15% Fetal Bovine Serum and Penicillin/Streptomycin.
LL29 cells are plated at 1,500 cells/well in 80 μL/well F12 medium supplemented with 1% Fetal Bovine Serum. […] Wells treated with TGF-β1 and containing DMSO were used as controls. […] Following incubation for 4 days, SYTOX green nucleic acid stain (Life Technologies [Thermo Fisher Scientific]) was added to the wells at a final concentration of 1 μM and incubated at room temperature for 30 min.

[4] = system: IL-6 (THP-1 cells); assay: IL-6 inhibition in THP-1 monocytes (HTRF); conditions: Homo sapiens; for EC50: IL-6 inhibition, THP-1 cells, HTRF, 10-point dose-response starting from 10 μM; for inhibition at 10 µM: THP-1, read-out: percentage in parentheses printed under EC50 >10
Protocol: Compound Screening: THP-1 cells were cultured in basal media with 1% FBS for 24 hours before the start of the assay. […] THP-1 cells were plated at 5000 cells/well in the 384-well plates and incubated at 37° C. for 2 h. 500 ng/mL of […] was added after 2 hours and cells were incubated for another 22 hours at 37° C. Plates were spun in a centrifuge for 1 minute at 10,000 rpm and a mixture of anti-IL6 XL665, and anti-IL6 Cryptate diluted in reconstitution buffer (Cisbio Inc.) was added to each well. Following incubation for 3 hrs at room temperature, Homogeneous Time-Resolved Fluorescence (HTRF) was measured using the Envision (Perkin Elmer) at 665 nm and […]. The ratio of fluorescence at 665 nm to 620 nm was used as a readout for IL6 quantification. All samples were processed in duplicate. Readings were normalized to DMSO treated cells and normalized activities were utilized for EC50 calculations using the dose-response log (inhibitor) vs. response-variable slope (four parameters) nonlinear regression feature available in GraphPad Prism 5.0 (or Dotmatics).

`Fc1cccc(-c2cncc3[nH]c(-c4n[nH]c5ccc(-c6cccnc6)cc45)cc23)c1` [Compound 4, 3-(4-(3-Fluorophenyl)-1H-pyrrolo[2,3-c]pyridin-2-yl)-5-(pyridin-3-yl)-1H-indazole] gave an EC50 [1] of 0.395 µM, an EC50 [2] of 1.38 µM and an EC50 [3] of 1.63 µM. For the same molecule, the EC50 [4] was 0.783 µM.
Molecule `CCCC(=O)Nc1cncc(-c2ccc3[nH]nc(-c4cc5c(-c6cccc(F)c6)cncc5[nH]4)c3c2)c1` [Compound 17, N-(5-(3-(4-(3-Fluorophenyl)-1H-pyrrolo[2,3-c]pyridin-2-yl)-1H-indazol-5-yl)pyridin-3-yl)butyramide] has an EC50 [1] of 0.2 µM, an EC50 [2] of 0.282 µM and an EC50 [3] of 0.254 µM. For the same molecule, the EC50 [4] was 0.087 µM.
`Fc1cccc(-c2cncc3[nH]c(-c4n[nH]c5ccc(-c6ccncc6)cc45)cc23)c1` [Compound 18, 3-(4-(3-Fluorophenyl)-1H-pyrrolo[2,3-c]pyridin-2-yl)-5-(pyridin-4-yl)-1H-indazole] was tested, and the EC50 [1] was 2.11 µM, the EC50 [2] was 0.988 µM and the EC50 [3] was 0.973 µM. For the same molecule, the inhibition at 10 µM [4] was 54.3% and the EC50 [4] was over 10 µM.
`O=C(Nc1cncc(-c2ccc3[nH]nc(-c4cc5c(-c6cccc(F)c6)cncc5[nH]4)c3c2)c1)C1CCCCC1` [Compound 23, N-(5-(3-(4-(3-Fluorophenyl)-1H-pyrrolo[2,3-c]pyridin-2-yl)-1H-indazol-5-yl)pyridin-3-yl)cyclohexanecarboxamide] showed an EC50 [1] of 0.62 µM, an EC50 [2] of 0.513 µM and an EC50 [3] of 0.193 µM. For the same molecule, the EC50 [4] was 0.108 µM.
Work on `CC(C)(C)C(=O)Nc1cncc(-c2ccc3[nH]nc(-c4cc5c(-c6ccc(F)cc6)cncc5[nH]4)c3c2)c1` [Compound 36, N-(5-(3-(4-(4-Fluorophenyl)-1H-pyrrolo[2,3-c]pyridin-2-yl)-1H-indazol-5-yl)pyridin-3-yl)pivalamide] yielded an EC50 [1] of 0.68 µM, an EC50 [2] of 0.702 µM and an EC50 [3] of 1.09 µM. The EC50 [4] was 6.91 µM.
In the case of `CN(C)Cc1cncc(-c2ccc3[nH]nc(-c4cc5c(-c6ccc(F)cc6)cncc5[nH]4)c3c2)c1` [Compound 41, 1-(5-(3-(4-(4-Fluorophenyl)-1H-pyrrolo[2,3-c]pyridin-2-yl)-1H-indazol-5-yl)pyridin-3-yl)-N,N-dimethylmethanamine], the EC50 [1] is reported as 3.08 µM, the EC50 [2] is reported as 1.17 µM and the EC50 [3] is reported as 1.19 µM. For the same molecule, the EC50 [4] was 7.05 µM.
In the case of `CCCC(=O)Nc1cncc(-c2ccc3[nH]nc(-c4cc5c(-c6ccc(F)cc6)cncc5[nH]4)c3c2)c1` [Compound 45, N-(5-(3-(4-(4-Fluorophenyl)-1H-pyrrolo[2,3-c]pyridin-2-yl)-1H-indazol-5-yl)pyridin-3-yl)butyramide], the EC50 [1] is reported as 1.51 µM, the EC50 [2] is reported as 1.01 µM and the EC50 [3] is reported as 0.29 µM. For the same molecule, the EC50 [4] was 0.349 µM.
In the case of `O=C(Nc1cncc(-c2ccc3[nH]nc(-c4cc5c(-c6ccc(F)cc6)cncc5[nH]4)c3c2)c1)C1CCC1` [Compound 49, N-(5-(3-(4-(4-Fluorophenyl)-1H-pyrrolo[2,3-c]pyridin-2-yl)-1H-indazol-5-yl)pyridin-3-yl)cyclobutanecarboxamide], the EC50 [1] is reported as 0.24 µM, the EC50 [2] is reported as 0.302 µM and the EC50 [3] is reported as 0.135 µM. The EC50 [4] was 0.171 µM.
`CC(C)C(=O)Nc1cncc(-c2ccc3[nH]nc(-c4cc5c(-c6ccccc6F)cncc5[nH]4)c3c2)c1` [Compound 65, N-(5-(3-(4-(2-Fluorophenyl)-1H-pyrrolo[2,3-c]pyridin-2-yl)-1H-indazol-5-yl)pyridin-3-yl)isobutyramide] showed an EC50 [1] of 0.626 µM, an EC50 [2] of 0.812 µM and an EC50 [3] of 1.25 µM. The EC50 [4] was 0.263 µM.
With `Fc1ccccc1-c1cncc2[nH]c(-c3n[nH]c4ccc(-c5cncc(CN6CCCCC6)c5)cc34)cc12` [Compound 71, 3-(4-(2-Fluorophenyl)-1H-pyrrolo[2,3-c]pyridin-2-yl)-5-(5-(piperidin-1-ylmethyl)pyridin-3-yl)-1H-indazole] the EC50 [1] was 4.25 µM, the EC50 [2] was 3.42 µM and the EC50 [3] was 2.31 µM. It also gave an EC50 [4] of 3.3 µM.
In the case of `CC(C)(C)CC(=O)Nc1cncc(-c2ccc3[nH]nc(-c4cc5c(-c6ccccc6F)cncc5[nH]4)c3c2)c1` [Compound 72, N-(5-(3-(4-(2-Fluorophenyl)-1H-pyrrolo[2,3-c]pyridin-2-yl)-1H-indazol-5-yl)pyridin-3-yl)-3,3-dimethylbutanamide], the EC50 [1] is reported as 0.73 µM, the EC50 [2] is reported as 0.693 µM and the EC50 [3] is reported as 0.593 µM. It also gave an EC50 [4] of 1.1 µM.
With `CCCCC(=O)Nc1cncc(-c2ccc3[nH]nc(-c4cc5c(-c6ccccc6F)cncc5[nH]4)c3c2)c1` [Compound 75] the EC50 [1] was 1.76 µM, the EC50 [2] was 1.18 µM and the EC50 [3] was 1.16 µM. The inhibition at 10 µM [4] was 39.1% and the EC50 [4] was over 10 µM.
With `O=C(Nc1cncc(-c2ccc3[nH]nc(-c4cc5c(-c6ccccc6F)cncc5[nH]4)c3c2)c1)C1CCCC1` [Compound 78, N-(5-(3-(4-(2-Fluorophenyl)-1H-pyrrolo[2,3-c]pyridin-2-yl)-1H-indazol-5-yl)pyridin-3-yl)cyclopentanecarboxamide] the EC50 [1] was 1.25 µM, the EC50 [2] was 1.23 µM and the EC50 [3] was 1.41 µM. It also gave an EC50 [4] of 6.42 µM.
Work on `Fc1ccccc1-c1cncc2[nH]c(-c3n[nH]c4ccc(-c5cncc(CN6CCC(F)(F)C6)c5)cc34)cc12` [Compound 82, 5-(5-((3,3-Difluoropyrrolidin-1-yl)methyl)pyridin-3-yl)-3-(4-(2-fluorophenyl)-1H-pyrrolo[2,3-c]pyridin-2-yl)-1H-indazole] yielded an EC50 [1] of 0.63 µM, an EC50 [2] of 0.923 µM and an EC50 [3] of 0.648 µM. For the same molecule, the EC50 [4] was 0.796 µM.
Molecule `Fc1ccccc1-c1cncc2[nH]c(-c3n[nH]c4ccc(-c5ccccn5)cc34)cc12` [Compound 84, 3-(4-(2-Fluorophenyl)-1H-pyrrolo[2,3-c]pyridin-2-yl)-5-(pyridin-2-yl)-1H-indazole] has an inhibition at 10 µM [1] of 45.9%, an EC50 [1] of over 10 µM and an EC50 [2] of 2.16 µM. For the same molecule, the EC50 [3] was 1.91 µM and the EC50 [4] was 6.48 µM.
With `O=C(Cc1ccccc1)Nc1cncc(-c2ccc3[nH]nc(-c4cc5c(-c6ccncc6)cncc5[nH]4)c3c2)c1` [Compound 122] the inhibition at 10 µM [1] was 21%, the EC50 [1] was over 10 µM and the EC50 [2] was over 10 µM. For the same molecule, the inhibition at 10 µM [2] was 8.6%, the EC50 [3] was 1.47 µM and the inhibition at 10 µM [4] was 47.8%. It also gave an EC50 [4] of over 10 µM.
In the case of `c1cc(-c2ccc3[nH]nc(-c4cc5c(-c6ccncc6)cncc5[nH]4)c3c2)ccn1` [Compound 130, 5-(Pyridin-4-yl)-3-(4-(pyridin-4-yl)-1H-pyrrolo[2,3-c]pyridin-2-yl)-1H-indazole], the inhibition at 10 µM [1] is reported as 24.7%, the EC50 [1] is reported as over 10 µM and the EC50 [2] is reported as over 10 µM. It also gave an inhibition at 10 µM [2] of 16.6%, an EC50 [3] of 1.23 µM and an inhibition at 10 µM [4] of 20.5%. For the same molecule, the EC50 [4] was over 10 µM.
`O=C(Nc1cncc(-c2ccc3[nH]nc(-c4cc5c(-c6ccncc6)cncc5[nH]4)c3c2)c1)C1CCCCC1` [Compound 135, N-(5-(3-(4-(Pyridin-4-yl)-1H-pyrrolo[2,3-c]pyridin-2-yl)-1H-indazol-5-yl)pyridin-3-yl)cyclohexanecarboxamide] gave an inhibition at 10 µM [1] of 20.8%, an EC50 [1] of over 10 µM and an EC50 [2] of over 10 µM. The inhibition at 10 µM [2] was 6.1%, the EC50 [3] was 9.98 µM and the EC50 [4] was 1.63 µM.
For `c1ccc(-c2ccc3[nH]nc(-c4cc5c(-c6ccncc6)cncc5[nH]4)c3c2)nc1` [Compound 140, 5-(Pyridin-2-yl)-3-(4-(pyridin-4-yl)-1H-pyrrolo[2,3-c]pyridin-2-yl)-1H-indazole], the EC50 [1] was 1.29 µM, the EC50 [2] was 1.06 µM and the EC50 [3] was 0.75 µM. For the same molecule, the EC50 [4] was 0.177 µM.
